Patent US20130053430A1, “MODULATION OF CETP EXPRESSION” (Isis Pharmaceuticals, Inc., priority 2010, published 2013)
Strand notation (5' to 3'): a small letter for the sugar, then the base; units joined by * are phosphorothioate-linked, units joined directly phosphodiester-linked; [ ] holds rarer units or linkages, { } end groups; capitals alone tell only the bases. e = 2'-O-(2-methoxyethyl) (MOE); [5mC] = 5-methylcytosine; d = 2'-deoxy (DNA)

What was measured:
human CETP mRNA [1] = assay: Antisense inhibition of human CETP mRNA in primary hepatocytes from huCETP transgenic mice (Example 4); type: cell-based, mouse; settings: cytofectin, ~24 hours
Procedure: Transgenic mice expressing human CETP, controlled by its natural flanking region, increase expression of this gene in response to hypercholesterolemia (Jiang, X. C. et al., J. Clin. Invest. 1992. 90: 1290-1295). These mice were utilized for the following studies. Antisense oligonucleotides targeted to a CETP nucleic acid and described in Example 1 were tested for their effect on CETP mRNA transcript in vitro. Cultured primary hepatocytes from huCETP transgenic mice, at a density of 17,500 cells per well in a 96-well plate, were transfected using cytofectin reagent with 100 nM or 200 nM antisense oligonucleotide. After approximately 24 hours, RNA was isolated from the cells and CETP mRNA levels were measured by quantitative real-time PCR. CETP mRNA transcript levels were adjusted according to total RNA content, as measured by the house-keeping gene, GAPDH mRNA levels. Results are presented in Table 6 as percent inhibition of CETP, relative to untreated control cells.

human CETP mRNA [2] = assay: Antisense inhibition of human CETP mRNA in SW872 liposarcoma cells (Example 1); type: cell-based; settings: 150 nM antisense oligonucleotide, lipofectin, ~24 hours, relative to untreated control cells
Procedure: Antisense oligonucleotides targeted to a CETP nucleic acid were tested for their effect on CETP mRNA transcript in vitro. Cultured SW872 liposarcoma cells at a density of 50,000 cells per well in a 24-well plate were transfected using lipofectin reagent with 150 nM antisense oligonucleotide. After approximately 24 hours, RNA was isolated from the cells and CETP mRNA levels were measured by quantitative real-time PCR. A human primer probe set (forward sequence […], designated herein as SEQ ID NO: 38; reverse sequence GGCTCACGCCTTTGCTGTT, designated herein as SEQ ID NO: 39; probe sequence […], designated herein as SEQ ID NO: 40) was used to quantitate CETP mRNA. CETP mRNA transcript levels were adjusted according to total RNA content, as measured by the house-keeping gene, GAPDH mRNA levels. GAPDH was measured using a primer probe set with the sequence as set forth in SEQ ID NOs: 10, 11, 13. Results are presented as percent inhibition of CETP, relative to untreated control cells.
The antisense oligonucleotides in Table 3 are 5-10-5 gapmers, where the gap segment comprises ten 2′-deoxynucleosides and each wing segment comprises five 2′-MOE nucleosides. Each nucleotide in the 5′ wing segment and each nucleotide in the 3′ wing segment has a 2′-MOE modification. The internucleoside linkages throughout each gapmer are phosphorothioate (P═S) linkages. All cytosine residues throughout each gapmer are 5-methylcytosines. ‘Target start site’ indicates the 5′-most nucleotide to which the antisense oligonucleotide is targeted. ‘Target stop site’ indicates the 3′-most nucleotide to which the antisense oligonucleotide is targeted. All the antisense oligonucleotides listed in Table 3 target human CETP mRNA, designated herein as SEQ ID NO: 1 (GENBANK Accession No. M30185.1).

human CETP mRNA [3] = assay: Dose-dependent antisense inhibition of human CETP in SW872 liposarcoma cells (Example 2); type: cell-based; settings: Lipofectin, ~16 hours (Example 2)
Procedure: Cells were plated at a density of 50,000 cells per well in a 24-well plate and transfected using Lipofectin reagent with 50 nM, 150 nM, and 300 nM concentrations of each antisense oligonucleotide. After approximately 16 hours, RNA was isolated from the cells and CETP mRNA levels were measured by quantitative real-time PCR. CETP mRNA levels were normalized to total RNA content, as measured by the house-keeping gene, GAPDH mRNA levels. Results are presented in Table 4 as percent inhibition of CETP, relative to untreated control cells.

| Substance | Percent inhibition of human CETP mRNA (human CETP mRNA [1]; 100 nM) | Percent inhibition of human CETP mRNA (human CETP mRNA [1]; 200 nM) | % inhibition (human CETP mRNA [2]) | percent inhibition of CETP (human CETP mRNA [3]; 50 nM) | percent inhibition of CETP (human CETP mRNA [3]; 150 nM) | percent inhibition of CETP (human CETP mRNA [3]; 300 nM) |
| --- | --- | --- | --- | --- | --- | --- |
| ISIS 349506: 5-10-5 MOE gapmer CGCCTTTGCTGTTCATGAGG (e[5mC]*eG*e[5mC]*e[5mC]*eT*dT*dT*dG*d[5mC]*dT*dG*dT*dT*d[5mC]*dA*eT*eG*eA*eG*eG) | 95% | 99% | 92% | 93% | 86% | 93% |
| ISIS 349465: 5-10-5 MOE gapmer GAGACATCAATGGACTTGGC (eG*eA*eG*eA*e[5mC]*dA*dT*d[5mC]*dA*dA*dT*dG*dG*dA*d[5mC]*eT*eT*eG*eG*e[5mC]) | 50% | 66% | 87% | 96% | 87% | 96% |
| ISIS 349490: 5-10-5 MOE gapmer CCTCTTGGAAGATTTCCTGG (e[5mC]*e[5mC]*eT*e[5mC]*eT*dT*dG*dG*dA*dA*dG*dA*dT*dT*dT*e[5mC]*e[5mC]*eT*eG*eG) | 36% | 80% | 89% | 97% | 93% | 88% |
| ISIS 349483: 5-10-5 MOE gapmer CTCTGAGACATTCTTGTAGA (e[5mC]*eT*e[5mC]*eT*eG*dA*dG*dA*d[5mC]*dA*dT*dT*d[5mC]*dT*dT*eG*eT*eA*eG*eA) | 77% | 63% | 85% | 100% | 98% | 85% |
| ISIS 349461: 5-10-5 MOE gapmer ATACTTGACTTGGCCAAGGA (eA*eT*eA*e[5mC]*eT*dT*dG*dA*d[5mC]*dT*dT*dG*dG*d[5mC]*d[5mC]*eA*eA*eG*eG*eA) | 65% | 52% | 97% | 75% | 80% | 88% |
| ISIS 349500: 5-10-5 MOE gapmer ACAGTCTTTGGTGTAATCTG (eA*e[5mC]*eA*eG*eT*d[5mC]*dT*dT*dT*dG*dG*dT*dG*dT*dA*eA*eT*e[5mC]*eT*eG) | 41% | 77% | 72% |  |  |  |
| ISIS 349476: 5-10-5 MOE gapmer CCTTCAGGACCAGCTTCAGG (e[5mC]*e[5mC]*eT*eT*e[5mC]*dA*dG*dG*dA*d[5mC]*d[5mC]*dA*dG*d[5mC]*dT*eT*e[5mC]*eA*eG*eG) | 49% | 60% | 59% |  |  |  |
| ISIS 349469: 5-10-5 MOE gapmer TCTCGAAGTCAATGGACTGA (eT*e[5mC]*eT*e[5mC]*eG*dA*dA*dG*dT*d[5mC]*dA*dA*dT*dG*dG*eA*e[5mC]*eT*eG*eA) | 40% | 66% | 70% |  |  |  |
| ISIS 349479: 5-10-5 MOE gapmer CTGGCAGCCCTTGTCTGGAC (e[5mC]*eT*eG*eG*e[5mC]*dA*dG*d[5mC]*d[5mC]*d[5mC]*dT*dT*dG*dT*d[5mC]*eT*eG*eG*eA*e[5mC]) | 80% | 66% | 67% |  |  |  |
| ISIS 349466: 5-10-5 MOE gapmer CCACAGACACGTTCTGAATG (e[5mC]*e[5mC]*eA*e[5mC]*eA*dG*dA*d[5mC]*dA*d[5mC]*dG*dT*dT*d[5mC]*dT*eG*eA*eA*eT*eG) | 57% | 81% | 15% |  |  |  |
| ISIS 349516: 5-10-5 MOE gapmer CATCTCCGTACTCCTAACCC (e[5mC]*eA*eT*e[5mC]*eT*d[5mC]*d[5mC]*dG*dT*dA*d[5mC]*dT*d[5mC]*d[5mC]*dT*eA*eA*e[5mC]*e[5mC]*e[5mC]) | 78% | 86% | 65% |  |  |  |
| ISIS 349458: 5-10-5 MOE gapmer GGTAGCTGGCTCGCTGGAAG (eG*eG*eT*eA*eG*d[5mC]*dT*dG*dG*d[5mC]*dT*d[5mC]*dG*d[5mC]*dT*eG*eG*eA*eA*eG) | 65% | 32% | 18% |  |  |  |
| ISIS 349489: 5-10-5 MOE gapmer GTTGAAGCCCCAGGTCTCCA (eG*eT*eT*eG*eA*dA*dG*d[5mC]*d[5mC]*d[5mC]*d[5mC]*dA*dG*dG*dT*e[5mC]*eT*e[5mC]*e[5mC]*eA) | 47% | 67% | 48% |  |  |  |
| ISIS 349467: 5-10-5 MOE gapmer GTGGTGTAGCCATACTTCAG (eG*eT*eG*eG*eT*dG*dT*dA*dG*d[5mC]*d[5mC]*dA*dT*dA*d[5mC]*eT*eT*e[5mC]*eA*eG) | 57% | 51% | 35% |  |  |  |
| ISIS 349488: 5-10-5 MOE gapmer GCACTGCCTTGAACTCGTCT (eG*e[5mC]*eA*e[5mC]*eT*dG*d[5mC]*d[5mC]*dT*dT*dG*dA*dA*d[5mC]*dT*e[5mC]*eG*eT*e[5mC]*eT) | 77% | 87% | 47% |  |  |  |
| ISIS 349510: 5-10-5 MOE gapmer TCTAGCTCAAGCTCTGGAGG (eT*e[5mC]*eT*eA*eG*d[5mC]*dT*d[5mC]*dA*dA*dG*d[5mC]*dT*d[5mC]*dT*eG*eG*eA*eG*eG) | 65% | 88% | 64% |  |  |  |
| ISIS 349452: 5-10-5 MOE gapmer CAGGACTGTGGCAGCCAGCA (e[5mC]*eA*eG*eG*eA*d[5mC]*dT*dG*dT*dG*dG*d[5mC]*dA*dG*d[5mC]*e[5mC]*eA*eG*e[5mC]*eA) | 60% | 51% | 75% |  |  |  |
| ISIS 349468: 5-10-5 MOE gapmer TCAATACCCAGCCACCAGGC (eT*e[5mC]*eA*eA*eT*dA*d[5mC]*d[5mC]*d[5mC]*dA*dG*d[5mC]*d[5mC]*dA*d[5mC]*e[5mC]*eA*eG*eG*e[5mC]) | 53% | 50% | 33% |  |  |  |
| ISIS 349445: 5-10-5 MOE gapmer CAGCAGGGTCTTCCTGGCCC (e[5mC]*eA*eG*e[5mC]*eA*dG*dG*dG*dT*d[5mC]*dT*dT*d[5mC]*d[5mC]*dT*eG*eG*e[5mC]*e[5mC]*e[5mC]) | 74% | 71% | 6% |  |  |  |
| ISIS 349492: 5-10-5 MOE gapmer GGCATCTTGAGGCAGTGGAC (antisense eG*eG*e[5mC]*eA*eT*d[5mC]*dT*dT*dG*dA*dG*dG*d[5mC]*dA*dG*eT*eG*eG*eA*e[5mC]) | 59% | 58% | 39% |  |  |  |
| ISIS 349491: 5-10-5 MOE gapmer AGCCGCCGACAACCTCTTGG (eA*eG*e[5mC]*e[5mC]*eG*d[5mC]*d[5mC]*dG*dA*d[5mC]*dA*dA*d[5mC]*d[5mC]*dT*e[5mC]*eT*eT*eG*eG) | 60% | 74% | 45% |  |  |  |
| ISIS 349502: 5-10-5 MOE gapmer GAAGCTCTGGATGGACTCGG (eG*eA*eA*eG*e[5mC]*dT*d[5mC]*dT*dG*dG*dA*dT*dG*dG*dA*e[5mC]*eT*e[5mC]*eG*eG) | 49% | 61% | 43% |  |  |  |
